What was measured:
[1] = system: antibodies in sera from SARS patients (sera 1a, 1b, 2, 6, 37, 62, London, SARS-yellow, SARS-green); format: binding, human; design: Binding of serum 6 to linear peptides of protein X1 of SARS-CoV Urbani / Binding of serum 37 to linear peptides of protein X1 of SARS-CoV Urbani / Binding of serum 6 to looped/cyclic peptide (PEPSCAN-ELISA) / Binding of serum 37 to looped/cyclic peptide (PEPSCAN-ELISA) / Binding of serum 37 to looped/cyclic peptides of protein X1 of SARS-CoV Urbani / Binding of serum 6 to linear peptides of protein X2 / Binding of serum 37 to linear peptides of protein X2 / Binding of serum 37 to looped/cyclic peptides of protein X2 of SARS-CoV Urbani / Binding of serum 6 to linear peptides of protein M of SARS-CoV Urbani / Binding of serum 37 to linear peptides of protein M of SARS-CoV Urbani / Binding of serum 6 to looped/cyclic peptides of protein M of SARS-CoV Urbani / Binding of serum 37 to looped/cyclic peptides of protein M of SARS-CoV Urbani / Binding of serum 6 to linear peptides of protein X3 of SARS-CoV Urbani / Binding of serum 37 to linear peptides of protein X3 of SARS-CoV Urbani / Binding of serum 37 to looped/cyclic peptides of protein X3 of SARS-CoV Urbani / Binding of serum 6 to linear peptides of protein X4 of SARS-CoV Urbani / Binding of serum 37 to linear peptides of protein X4 of SARS-CoV Urbani / Binding of serum 37 to looped/cyclic peptides of protein X4 of SARS-CoV Urbani / Binding of serum 6 to linear peptides of protein X5 of SARS-CoV Urbani / Binding of serum 37 to linear peptides of protein X5 of SARS-CoV Urbani / Binding of serum 37 to looped/cyclic peptides of protein X5 of SARS-CoV Urbani / Binding of serum 6 to linear peptides of protein N of SARS-CoV Urbani / Binding of serum 37 to linear peptides of protein N of SARS-CoV Urbani / Binding of serum 6 to linear peptide (PEPSCAN-ELISA) / Binding of serum 1a to looped/cyclic peptides of protein N of SARS-CoV Urbani / Binding of serum 1b to looped/cyclic peptides of protein N of SARS-CoV Urbani / Binding of serum 2 to looped/cyclic peptides of protein N of SARS-CoV Urbani / Binding of serum 6 to looped/cyclic peptides of protein N of SARS-CoV Urbani / Binding of serum 37 to looped/cyclic peptides of protein N of SARS-CoV Urbani / Binding of serum 62 to looped/cyclic peptides of protein N of SARS-CoV Urbani / Binding of serum London to looped/cyclic peptides of protein N of SARS-CoV Urbani / Binding of serum SARS-green to looped/cyclic peptides of protein N of SARS-CoV Urbani: unit not given here
[2] = system: control sera (pooled serum of ten healthy LUMC hospital workers; commercial negative donor pooled serum from the Dutch bloodbank); format: binding, human; design: Binding of Control serum LUMC to linear peptides / Binding of Control serum Blood-bank to linear peptides / Binding of Control serum LUMC to looped peptides / Binding of Control Serum Blood-Bank to Looped peptides / Binding of Control serum LUMC to linear peptides of the protein M of SARS-CoV Urbani / Binding of Control serum Blood-bank to linear peptides of the protein M of SARS-CoV Urbani / Binding of Control serum LUMC to looped peptides of the protein M of SARS-CoV Urbani / Binding of Control Serum Blood-Bank to Looped peptides of the protein M of SARS-CoV Urbani: unit not given here
[3] = system: rabbit serum obtained by immunizing a rabbit with the SARS-CoV strain Frankfurt 1; format: binding; design: Binding of a rabbit serum to linear peptides / Binding of a rabbit serum to looped peptides / Rabbit serum linear peptides / Rabbit serum looped peptides / Binding of a rabbit serum to linear peptides of protein N of SARS-CoV Urbani (Rabbit serum linear peptides) / Binding of a rabbit serum to looped/cyclic peptides of protein N of SARS-CoV Urbani (Rabbit serum looped peptides): unit not given here

SLHKLLQTLVLKMLH
Binding of serum 1a to linear peptides of protein X2 [1]: 0.7
Binding of serum 1a to looped/cyclic peptides of protein X2 of SARS-CoV Urbani [1]: 0.6
Binding of serum 1b to linear peptides of protein X2 [1]: 0.5
Binding of serum 1b to looped/cyclic peptides of protein X2 of SARS-CoV Urbani [1]: 0.5
Binding of serum 2 to linear peptides of protein X2 [1]: 0.3
Binding of serum 2 to looped/cyclic peptides of protein X2 of SARS-CoV Urbani [1]: 0.4
Binding of serum 6 to linear peptides of protein X2 [1]: 0.3
Binding of serum 6 to looped/cyclic peptides of protein X2 of SARS-CoV Urbani [1]: 0.3
Binding of serum 37 to linear peptides of protein X2 [1]: 0.4
Binding of serum 37 to looped/cyclic peptides of protein X2 of SARS-CoV Urbani [1]: 0.4
Binding of serum 62 to linear peptides of protein X2 [1]: 0.6
Binding of serum 62 to looped/cyclic peptides of protein X2 of SARS-CoV Urbani [1]: 0.7
Binding of serum London to linear peptides of protein X2 [1]: 0.3
Binding of serum London to looped/cyclic peptides of protein X2 of SARS-CoV Urbani [1]: 0.3
Binding of serum SARS-green to linear peptides of protein X2 [1]: 0.4
Binding of serum SARS-green to looped/cyclic peptides of protein X2 of SARS-CoV Urbani [1]: 0.3
Binding of serum SARS-yellow to linear peptides of protein X2 [1]: 0.1
Binding of serum SARS-yellow to looped/cyclic peptides of protein X2 of SARS-CoV Urbani [1]: 0.5
Binding of Control Serum Blood-Bank to Looped peptides [2]: 0.7
Binding of Control serum Blood-bank to linear peptides [2]: 0.6
Binding of Control serum LUMC to linear peptides [2]: 0.3
Binding of Control serum LUMC to looped peptides [2]: 0.7
Binding of a rabbit serum to linear peptides [3]: 0.3
Binding of a rabbit serum to looped peptides [3]: 0.5

SLPFGWLVIGVAFLA
Binding of serum 1a to linear peptides of protein X1 of SARS-CoV Urbani [1]: 0.7
Binding of serum 1a to looped/cyclic peptide (PEPSCAN-ELISA) [1]: 0.3
Binding of serum 1b to linear peptides of protein X1 of SARS-CoV Urbani [1]: 0.6
Binding of serum 1b to looped/cyclic peptide (PEPSCAN-ELISA) [1]: 0.2
Binding of serum 2 to linear peptides of protein X1 of SARS-CoV Urbani [1]: 0.5
Binding of serum 2 to looped/cyclic peptide (PEPSCAN-ELISA) [1]: 0.2
Binding of serum 6 to linear peptides of protein X1 of SARS-CoV Urbani [1]: 0.4
Binding of serum 6 to looped/cyclic peptide (PEPSCAN-ELISA) [1]: 0.0
Binding of serum 37 to linear peptides of protein X1 of SARS-CoV Urbani [1]: 0.6
Binding of serum 37 to looped/cyclic peptide (PEPSCAN-ELISA) [1]: 0.3
Binding of serum 62 to linear peptides of protein X1 of SARS-CoV Urbani [1]: 0.5
Binding of serum 62 to looped/cyclic peptide (PEPSCAN-ELISA) [1]: 0.3
Binding of serum London to linear peptides of protein X1 of SARS-CoV Urbani [1]: 0.2
Binding of serum London to looped/cyclic peptide (PEPSCAN-ELISA) [1]: 0.2
Binding of serum SARS-green to linear peptides of protein X1 of SARS-CoV Urbani [1]: 0.2
Binding of serum SARS-green to looped/cyclic peptide (PEPSCAN-ELISA) [1]: 0.3
Binding of serum SARS-yellow to linear peptides of protein X1 of SARS-CoV Urbani [1]: 0.4
Binding of serum SARS-yellow to looped/cyclic peptide (PEPSCAN-ELISA) [1]: 0.2
Binding of Control Serum Blood-Bank to Looped peptides [2]: 0.4
Binding of Control serum Blood-bank to linear peptides [2]: 0.6
Binding of Control serum LUMC to linear peptides [2]: 0.6
Binding of Control serum LUMC to looped peptides [2]: 0.3
Binding of a rabbit serum to linear peptides [3]: 0.4
Binding of a rabbit serum to looped peptides [3]: 0.1

SLYMAISPKFTTSLS
Binding of serum 1a to linear peptides of protein X2 [1]: 0.7
Binding of serum 1a to looped/cyclic peptides of protein X2 of SARS-CoV Urbani [1]: 0.6
Binding of serum 1b to linear peptides of protein X2 [1]: 0.5
Binding of serum 1b to looped/cyclic peptides of protein X2 of SARS-CoV Urbani [1]: 0.6
Binding of serum 2 to linear peptides of protein X2 [1]: 0.5
Binding of serum 2 to looped/cyclic peptides of protein X2 of SARS-CoV Urbani [1]: 0.3
Binding of serum 6 to linear peptides of protein X2 [1]: 0.4
Binding of serum 6 to looped/cyclic peptides of protein X2 of SARS-CoV Urbani [1]: 0.4
Binding of serum 37 to linear peptides of protein X2 [1]: 0.6
Binding of serum 37 to looped/cyclic peptides of protein X2 of SARS-CoV Urbani [1]: 0.4
Binding of serum 62 to linear peptides of protein X2 [1]: 0.6
Binding of serum 62 to looped/cyclic peptides of protein X2 of SARS-CoV Urbani [1]: 0.5
Binding of serum London to linear peptides of protein X2 [1]: 0.6
Binding of serum London to looped/cyclic peptides of protein X2 of SARS-CoV Urbani [1]: 0.3
Binding of serum SARS-green to linear peptides of protein X2 [1]: 0.6
Binding of serum SARS-green to looped/cyclic peptides of protein X2 of SARS-CoV Urbani [1]: 0.5
Binding of serum SARS-yellow to linear peptides of protein X2 [1]: 0.6
Binding of serum SARS-yellow to looped/cyclic peptides of protein X2 of SARS-CoV Urbani [1]: 0.6
Binding of Control Serum Blood-Bank to Looped peptides [2]: 0.6
Binding of Control serum Blood-bank to linear peptides [2]: 0.7
Binding of Control serum LUMC to linear peptides [2]: 0.6
Binding of Control serum LUMC to looped peptides [2]: 0.9
Binding of a rabbit serum to linear peptides [3]: 0.2
Binding of a rabbit serum to looped peptides [3]: 0.3

SMWSFNPETNILLNV
Binding of serum 1a to linear peptides of protein M of SARS-CoV Urbani [1]: 0.8
Binding of serum 1a to looped/cyclic peptides of protein M of SARS-CoV Urbani [1]: 0.7
Binding of serum 1b to linear peptides of protein M of SARS-CoV Urbani [1]: 0.7
Binding of serum 1b to looped/cyclic peptides of protein M of SARS-CoV Urbani [1]: 0.1
Binding of serum 2 to linear peptides of protein M of SARS-CoV Urbani [1]: 0.5
Binding of serum 2 to looped/cyclic peptides of protein M of SARS-CoV Urbani [1]: 0.8
Binding of serum 6 to linear peptides of protein M of SARS-CoV Urbani [1]: 0.5
Binding of serum 6 to looped/cyclic peptides of protein M of SARS-CoV Urbani [1]: 0.6
Binding of serum 37 to linear peptides of protein M of SARS-CoV Urbani [1]: 0.5
Binding of serum 37 to looped/cyclic peptides of protein M of SARS-CoV Urbani [1]: 0.8
Binding of serum 62 to linear peptides of protein M of SARS-CoV Urbani [1]: 0.5
Binding of serum 62 to looped/cyclic peptides of protein M of SARS-CoV Urbani [1]: 0.7
Binding of serum London to linear peptides of protein M of SARS-CoV Urbani [1]: 0.4
Binding of serum London to looped/cyclic peptides of protein M of SARS-CoV Urbani [1]: 0.2
Binding of serum SARS-green to linear peptides of protein M of SARS-CoV Urbani [1]: 0.5
Binding of serum SARS-green to looped/cyclic peptides of protein M of SARS-CoV Urbani [1]: 0.2
Binding of serum SARS-yellow to linear peptides of protein M of SARS-CoV Urbani [1]: 0.2
Binding of serum SARS-yellow to looped/cyclic peptides of protein M of SARS-CoV Urbani [1]: 0.7
Binding of Control Serum Blood-Bank to Looped peptides of the protein M of SARS-CoV Urbani [2]: 0.8
Binding of Control serum Blood-bank to linear peptides of the protein M of SARS-CoV Urbani [2]: 0.8
Binding of Control serum LUMC to linear peptides of the protein M of SARS-CoV Urbani [2]: 0.8
Binding of Control serum LUMC to looped peptides of the protein M of SARS-CoV Urbani [2]: 0.7
Rabbit serum linear peptides [3]: 0.2
Rabbit serum looped peptides [3]: 0.4

SPLFLIVAALVFLIL
Binding of serum 1a to linear peptides of protein X4 of SARS-CoV Urbani [1]: 0.6
Binding of serum 1a to looped/cyclic peptides of protein X4 of SARS-CoV Urbani [1]: 0.6
Binding of serum 1b to linear peptides of protein X4 of SARS-CoV Urbani [1]: 0.2
Binding of serum 1b to looped/cyclic peptides of protein X4 of SARS-CoV Urbani [1]: 0.4
Binding of serum 2 to linear peptides of protein X4 of SARS-CoV Urbani [1]: 0.5
Binding of serum 2 to looped/cyclic peptides of protein X4 of SARS-CoV Urbani [1]: 0.7
Binding of serum 6 to linear peptides of protein X4 of SARS-CoV Urbani [1]: 0.2
Binding of serum 6 to looped/cyclic peptides of protein X4 of SARS-CoV Urbani [1]: 0.3
Binding of serum 37 to linear peptides of protein X4 of SARS-CoV Urbani [1]: 0.6
Binding of serum 37 to looped/cyclic peptides of protein X4 of SARS-CoV Urbani [1]: 0.7
Binding of serum 62 to linear peptides of protein X4 of SARS-CoV Urbani [1]: 0.6
Binding of serum 62 to looped/cyclic peptides of protein X4 of SARS-CoV Urbani [1]: 0.2
Binding of serum London to linear peptides of protein X4 of SARS-CoV Urbani [1]: 0.6
Binding of serum London to looped/cyclic peptides of protein X4 of SARS-CoV Urbani [1]: 0.4
Binding of serum SARS-green to linear peptides of protein X4 of SARS-CoV Urbani [1]: 0.5
Binding of serum SARS-green to looped/cyclic peptides of protein X4 of SARS-CoV Urbani [1]: 0.6
Binding of serum SARS-yellow to linear peptides of protein X4 of SARS-CoV Urbani [1]: 0.3
Binding of serum SARS-yellow to looped/cyclic peptides of protein X4 of SARS-CoV Urbani [1]: 0.3
Binding of Control Serum Blood-Bank to Looped peptides [2]: 0.3
Binding of Control serum Blood-bank to linear peptides [2]: 0.4
Binding of Control serum LUMC to linear peptides [2]: 0.3
Binding of Control serum LUMC to looped peptides [2]: 0.5
Rabbit serum linear peptides [3]: 0.5
Rabbit serum looped peptides [3]: 0.8
